{
  "source": "patent US20060148763A1",
  "about": "“Compounds and methods for regulating triglyceride levels” (priority 2005, published 2006)",
  "system": "serum triglyceride levels",
  "assay": "Rabbit hypercholesteremic model (2% cholesterol diet, 7 weeks): serum triglycerides",
  "type": "in vivo, Male New Zealand white rabbits",
  "details": "hypercholesterol diet, n = 5, P5P 10 mg/kg/day, simvastatin 5 mg/kg/day oral",
  "experimental": "The anti-atherogenic effects of P5P alone and in combination with simvastatin in a rabbit hypercholesteremic model were determined. The study compared the effects of P5P and simvastatin alone and in combination on atherosclerotic lesion formation, lipid profile (total cholesterol, LDL, HDL, triglycerides and oxidized LDL), homocysteine levels and various markers of inflammation (CRP, IL-1β, IL-6, IFN-γ and TNF-α).\nAnimals—Male New Zealand white rabbits 2.0-3.0 kg.\nAnimal Feed—The normocholesterol diet is Co-op Complete Rabbit Feed manufactured by Federated Co-operatives Limited (Saskatchewan). The 2% cholesterol diet is Test Diet 0009459 MRab/2% Chol 3/16 manufactured by Purina Mills (USA).\nThe rabbits were fed the normocholesterol and 2% cholesterol diet ad libitum. All animals received a timothy cube after blood sampling. […]\nGroup 3: Hypercholesterol diet+P5P 10 mg/kg/day\nGroup 4: Hypercholesterol diet+simvastatin 5 mg/kg/day\nGroup 5: Hypercholesterol diet+P5P 10 mg/kg/day+simvastatin 5 mg/kg/day\nThe rabbits were fed a normocholesterol or hypercholesterol diet for a total of 7 weeks. The normocholesterol rabbits were treated once per day with 1 ml of ethanol and 5 ml of RO water via a nasogastric tube. The hypercholesterol animals were treated once per day with either P5P (10 mg/kg), simvastatin (5 mg/kg) or a combination of P5P and simvastatin (P5P 10 mg/kg; simvastatin 5 mg/kg) via a nasogastric tube. The P5P was dissolved in 5 ml of 0.05 N NaOH so that the pH of the solution is approximately 7. The simvastatin was dissolved in 1 ml of anhydrous ethanol.\nFive ml of blood was collected from the marginal ear vein of the rabbits at 0, 2, 4 and 6 weeks. Prior to blood collection the animals were sedated with 1 mg/kg of acepromazine. Following collection, the serum was separated. The serum is aliquoted (500 μl) and frozen at −80° C. until used for the assaying various lipids (total cholesterol, LDL, HDL, triglycerides, oxidized LDL) and cytokines (CRP, IL-1β, IL-6, IFN-γ and TNF-α).\nAt 7 weeks, the animals were anesthetized and 10 ml of blood was collected. Then the animals were euthanized, and the heart and thoracic aorta removed. The hearts and aortas were frozen in liquid nitrogen or an ethanol dry ice bath and stored at −80° C. until analyzed.\nTest Articles—P5P (pyridoxal 5′-phosphate monohydrate) was purchased from Sigma (P82870). Simvastatin is obtained from ACIC Fine Chemicals Inc. Two test compound vials were provided for each animal for each day. The first vial (small) was diluted in 1 ml of anhydrous ethanol. The second vial was diluted in either 5 ml of RO water or 5 ml of 0.05 N NaOH. The diluent for each vial was clearly marked on the vial. The test solutions were prepared fresh each day just before they were administered to the animals. The stock P5P was stored in a refrigerator at 4° C. under low light conditions. The simvastatin was stored following the manufacture recommendations. The individual test vials were stored in a refrigerator at 4° C. under low light conditions.\nTest Article(s) Dose, Route of Administration and Duration—The rabbits were treated orally with the drugs, once per day for a total of 7 weeks. The contents of vial one (small; 1 ml) were given to the animals first, followed by the contents of vial 2 (large; 5 ml). The test compound treatments were followed by a 5 ml RO water chaser.",
  "data": [
    {"smiles": "CCC(C)(C)C(=O)O[C@H]1C[C@@H](C)C=C2C=C[C@H](C)[C@H](CC[C@@H]3C[C@@H](O)CC(=O)O3)[C@H]21", "note": "[Simvastatin, simvastatin, reference compound]", "values": [
      {"measurement": "Triglycerides, Week 2", "result": 0.986, "unit": "mmol/L"},
      {"measurement": "Triglycerides, Week 4", "result": 1.588, "unit": "mmol/L"},
      {"measurement": "Triglycerides, Week 6", "result": 2.158, "unit": "mmol/L"},
      {"measurement": "Triglycerides, Week 7", "setting": "end of study", "result": 1.766, "unit": "mmol/L"},
      {"measurement": "Triglycerides, Week 0", "setting": "start of study", "result": 0.956, "unit": "mmol/L"}
    ]}
  ]
}
